Source: US20230295133A1, “PROCESS FOR PREPARING A COMPOUND USEFUL TO TREAT MYCOSES” (PULMOCIDE LIMITED, priority 2014, published 2023)
Values after ≈ are worked out from the molar mass of the structure shown.

Experiments:
[1] = Cell viability: resazurin assay; assay type: cell-based, human; settings: human, BEAS2B cells; n = 3-5
Description: BEAS2B cells were seeded in 384-well plates (100 µL; 3000 / well /; BD Falcon, Catalogue No 353962) in RPMI-LHC8 (RPMI-1640 and LHC8 media combined in equal proportions) one day before experimentation. For cell-free control wells, RPMI-LHC8 (100 µL) was added. Test compounds (0.5 µL of a DMSO solution) were added to give a final DMSO concentration of 0.5% using an Integra VIAFLO 96 (Integra, Zizers, Switzerland). BEAS2B cells were incubated with each test compound for 1 day (37° C. / 5% CO2 in RPMI-LHC8). After addition of resazurin stock solution (5 µL, 0.04%) the plates were incubated for a further 4 hr (37° C. / 5% CO2). The fluorescence of each well at 545 nm (excitation) and 590 nm (emission) was determined using a multi-scanner (Clariostar: BMG Labtech). The percentage loss of cell viability was calculated for each well relative to vehicle (0.5% DMSO) treatment. Where appropriate, a CC50 value was calculated from the concentration-response curve generated from the concentration-response curve for each test compound.

[2] = test system: Aspergillus fumigatus NCPF7099; experiment: Broth microdilution assay (modified EUCAST); assay type: cell-based; settings: Aspergillus fumigatus, NCPF7099, n = 3, read-out: MIC75 against Aspergillus fumigatus isolate NCPF7099
Description: (§1) This assay was conducted using a modified method published by EUCAST (Rodriguez-Tudela et al., 2008). Spores of aspergillus fumigatus (NCPF2010, NCPF7010 (Methionine 220 mutation), NCPF7099 (Glycine G54 mutation) from Public Health England, Wiltshire; TR34/L98H mutants from St Louis Hospital, Paris, France) were cultured in Sabouraud dextrose agar for 3 days. A stock spore suspension was prepared from a Sabouraud dextrose agar culture by washing with PBS-tween (10 mL; PBS containing 0.05% Tween-20, 100 U/mL Penicillin and 100 U/mL Streptomycin). The spore count was assessed using a Neubauer haemocytometer and then adjusted to 10^6 spores/mL with PBS. A working suspension of spores (2 × 10^5 spores/mL) was prepared in filter sterilised, BSA MOPS RPMI-1640 (50 mL; RPMI-1640 containing 2 mM L-glutamine, 0.5% BSA, 2% glucose, 0.165 M MOPS, buffered to pH 7 with NaOH). For the assay, BSA MOPS RPMI-1640 (50 µL/well) was added throughout the 384-well plate (Catalogue number 353962, BD Falcon, Oxford, UK) first. Test compounds (0.5 µL DMSO solution) were then added in quadruplicate using an Integra VIAFLO 96 (Integra, Zizers, Switzerland), and mixed well using a plate mixer. Subsequently 50 µL of the working spore suspension prepared above was added to all wells except non-spore control wells. For non-spore control wells, BSA MOPS-RPMI solution (50 µL/well) was added instead. The plate was covered with a plastic lid, and incubated (35° C. with ambient air) for 48 hr. The OD of each well at 530 nm was determined using a multi-scanner (Clariostar: BMG, Buckinghamshire, UK). The percentage inhibition for each well was calculated and the MIC50, MIC75 and MIC90 values were calculated from the concentration-response curve generated for each test compound.

[3] = test system: Aspergillus fumigatus NCPF2010; experiment: Broth microdilution assay (modified EUCAST); assay type: cell-based; settings: Aspergillus fumigatus, NCPF2010, read-out: MIC75 against Aspergillus fumigatus isolate NCPF2010
Description: as §1

[4] = test system: Aspergillus fumigatus L98H (TR34/L98H); experiment: Broth microdilution assay (modified EUCAST); assay type: cell-based; settings: Aspergillus fumigatus, read-out: MIC75 against Aspergillus fumigatus isolate L98H
Description: as §1

[5] = test system: Aspergillus fumigatus NCPF7100; experiment: Broth microdilution assay (modified EUCAST); assay type: cell-based; settings: Aspergillus fumigatus, NCPF7100, read-out: MIC75 against Aspergillus fumigatus isolate NCPF7100
[6] = test system: aspergillus fumigatus infection of BEAS2B cells; experiment: Aspergillus fumigatus infection of bronchial epithelial cells (GM in supernatant); assay type: cell-based; settings: bronchial epithelial cells infected with Aspergillus fumigatus; read-out: MIC50 Infection of BEAS2B cells
Description: BEAS2B cells were seeded in 96-well plates (100 µL; 30,000 cells / well; Catalogue No 3596, Sigma Aldrich, Dorset, UK) in 10% FBS RPMI-1640 and were then incubated (37° C., 5% CO2) for one day before experimentation. Test compounds (0.5 µL DMSO solution) or vehicle (DMSO) were added to each well to give a final DMSO concentration of 0.5%. BEAS2B cells were incubated with test compounds for 1 hr (35° C., 5% CO2) before infection with aspergillus fumigatus (20 µL; Public Health England) conidia suspension (0.5×10^5 /ml in 10% FBS RPMI-1640). The plate was incubated for 24 hr (35° C., 5% CO2). Supernatant (50 µL) was collected and transferred to a PCR plate (Catalogue No L1402-9700, Starlab, Milton Keynes, UK), which was frozen (-20° C.) until use. After thawing, supernatant (5 µL) was diluted 1:20 by adding R7-PBS solution (95 µL; 1:4 R7 to PBS; Bio-Rad Laboratories, Redmond, WA, USA). GM levels in these samples (50 µL) were measured using Platelia GM-EIA kits (Bio-Rad Laboratories, Redmond, WA, USA). The percentage inhibition for each well was calculated and the IC50 value was calculated from the concentration-response curve generated for each test compound.

| SMILES | CC50 at 1 day [1] [µM] | MIC [2] [µM] | MIC [3] [µM] | MIC [4] [µM] | MIC [5] [µM] | MIC50 [6] [µM] |
| --- | --- | --- | --- | --- | --- | --- |
| N#Cc1ccc(NC(=O)c2ccc(N3CCN(c4ccc(OC[C@@H]5CO[C@@](Cn6cncn6)(c6ccc(F)cc6F)C5)c(CO)c4)CC3)cc2)nc1 [Example 38, 4-(4-(4-(((3R, 5R)-5-((1H-1,2,4-triazol-1-yl)methyl)-5-(2,4-difluorophenyl)tetrahydrofuran-3-yl)methoxy)-3-hydroxymethylphenyl)piperazin-1-yl)-N-(5-cyanopyridin-2-yl)benzamide] | > 14.1 | 0.0319 (≈ 0.0225 µg/mL) | 0.0124 (≈ 0.00876 µg/mL) | 0.0654 (≈ 0.0462 µg/mL) | 0.0336 (≈ 0.0237 µg/mL) | 0.00486 (≈ 0.00343 µg/mL) |
| Cc1cc(N2CCN(c3ccc(C(=O)Nc4cccc(C#N)c4)cc3)CC2)ccc1OC[C@@H]1CO[C@@](Cn2cncn2)(c2ccc(F)cc2F)C1 [Example 8, 4-(4-(4-(((3R,5R)-5-((1H-1,2,4-triazol-1-yl)methyl)-5-(2,4-difluorophenyl)tetrahydrofuran-3-yl)methoxy)-3-methylphenyl)piperazin-1-yl)-N-(3-cyanophenyl)benzamide] | 0.548 | > 1.45 | 0.0127 (≈ 0.00876 µg/mL) | > 1.45 | > 1.45 | 0.0142 (≈ 0.00979 µg/mL) |
| COc1cc(N2CCN(c3ccc(OC[C@@H]4CO[C@@](Cn5cncn5)(c5ccc(F)cc5F)C4)c(C)c3)CC2)ccc1C(=O)Nc1ccc(F)cc1 [Example 35, 4-(4-(4-(((3R,5R)-5-((1H-1,2,4-triazol-1-yl)methyl)-5-(2,4-difluorophenyl)tetrahydrofuran-3-yl)methoxy)-3-methylphenyl)piperazin-1-yl)-N-(4-fluorophenyl)-2-methoxybenzamide] | > 14 | 0.109 (≈ 0.0777 µg/mL) | 0.0634 (≈ 0.0452 µg/mL) | 0.178 (≈ 0.127 µg/mL) | 0.111 (≈ 0.0791 µg/mL) | 0.125 (≈ 0.0891 µg/mL) |
| Cc1cc(N2CCN(c3ccc(C(=O)Nc4cc(F)ccc4F)cc3)CC2)ccc1OC[C@@H]1CO[C@@](Cn2cncn2)(c2ccc(F)cc2F)C1 [Example 26, 4-(4-(4-(((3R, 5R)-5-((1H-1,2,4-triazol-1-yl)methyl)-5-(2,4-difluorophenyl)tetrahydrofuran-3-yl)methoxy)-3-methylphenyl)piperazin-1-yl)-N-(2,5-difluorophenyl)benzamide] | > 14.3 | 0.131 (≈ 0.0918 µg/mL) | 0.0311 (≈ 0.0218 µg/mL) | 0.126 (≈ 0.0883 µg/mL) | 0.091 (≈ 0.0638 µg/mL) | > 1.43 |
| O=C(Nc1ccc(F)cc1)c1ccc(N2CCN(c3ccc(OCC4CO[C@@](Cn5cncn5)(c5ccc(F)cc5F)C4)c(Cl)c3)CC2)cc1 (stereo in doubt) [Example 18, 4-(4-(4-(((3R,5R)-5-((1H-1,2,4-triazol-1-yl)methyl)-5-(2,4-difluorophenyl)tetrahydrofuran-3-yl)methoxy)-3-chlorophenyl)piperazin-1-yl)-N-(4-fluorophenyl)benzamide] | > 14.2 | 0.011 (≈ 0.00773 µg/mL) | 0.0222 (≈ 0.0156 µg/mL) | 0.0733 (≈ 0.0515 µg/mL) | 0.0471 (≈ 0.0331 µg/mL) | 0.0866 (≈ 0.0609 µg/mL) |
| O=C(Nc1ccc(F)cn1)c1ccc(N2CCN(c3ccc(OCC4CO[C@@](Cn5cncn5)(c5ccc(F)cc5F)C4)c(F)c3)CC2)cc1 (stereo in doubt) [Example 40, 4-(4-(4-(((3R, 5R)-5-((1H-1,2,4-triazol-1-yl)methyl)-5-(2,4-difluorophenyl)tetrahydrofuran-3-yl)methoxy)-3-fluorophenyl)piperazin-1-yl)-N-(5-fluoropyridin-2-yl)benzamide] | > 14.5 | 0.024 (≈ 0.0165 µg/mL) | 0.0125 (≈ 0.0086 µg/mL) | 0.0731 (≈ 0.0503 µg/mL) | 0.0146 (≈ 0.01 µg/mL) | 0.00687 (≈ 0.00472 µg/mL) |
| COc1cc(C(=O)Nc2ccc(F)cc2)ccc1N1CCN(c2ccc(OC[C@@H]3CO[C@@](Cn4cncn4)(c4ccc(F)cc4F)C3)c(C)c2)CC1 [Example 34, 4-(4-(4-(((3R, 5R)-5-((1H-1,2,4-triazol-1-yl)methyl)-5-(2,4-difluorophenyl)tetrahydrofuran-3-yl)methoxy)3-methylphenyl)piperazin-1-yl)-N-(4-fluorophenyl)-3-methoxybenzamide] | > 14 | 0.029 (≈ 0.0207 µg/mL) | 0.0446 (≈ 0.0318 µg/mL) | 0.0739 (≈ 0.0527 µg/mL) | 0.0148 (≈ 0.0105 µg/mL) | 0.0219 (≈ 0.0156 µg/mL) |
| Cc1cc(N2CCN(c3ccc(C(=O)Nc4c(F)cc(F)cc4F)cc3)CC2)ccc1OC[C@@H]1CO[C@@](Cn2cncn2)(c2ccc(F)cc2F)C1 [Example 31, 4-(4-(4-(((3R, 5R)-5-((1H-1,2,4-triazol-1-yl)methyl)-5-(2,4-difluorophenyl)tetrahydrofuran-3-yl)methoxy)3-methylphenyl)piperazin-1-yl)-N-(2,4,6-trifluorophenyl)benzamide] | > 13.9 | 0.0109 (≈ 0.00783 µg/mL) | 0.0439 (≈ 0.0316 µg/mL) | 0.163 (≈ 0.117 µg/mL) | 0.0679 (≈ 0.0488 µg/mL) | 0.0107 (≈ 0.00769 µg/mL) |
| Cc1cc(N2CCN(c3ccc(C(=O)Nc4ccc(C#N)cc4)cc3)CC2)ccc1OC[C@@H]1CO[C@@](Cn2cncn2)(c2ccc(F)cc2F)C1 [Example 9, 4-(4-(4-(((3R,5R)-5-((1H-1,2,4-triazol-1-yl)methyl)-5-(2,4-difluorophenyl)tetrahydrofuran-3-yl)methoxy)-3-methylphenyl)piperazin-1-yl)-N-(4-cyanophenyl)benzamide] | > 14.5 | 0.00739 (≈ 0.0051 µg/mL) | 0.0291 (≈ 0.0201 µg/mL) | 0.114 (≈ 0.0786 µg/mL) | 0.0232 (≈ 0.016 µg/mL) | 0.00521 (≈ 0.00359 µg/mL) |
| Cc1cc(N2CCN(c3ccc(C(=O)Nc4ccc(C#N)cc4)cc3)CC2)cc(C)c1OC[C@@H]1CO[C@@](Cn2cncn2)(c2ccc(F)cc2F)C1 [Example 11, 4-(4-(4-(((3R, 5R)-5-((1H-1,2,4-triazol-1-yl)methyl)-5-(2,4-difluorophenyl)tetrahydrofuran-3-yl)methoxy)-3,5-dimethylphenyl)piperazin-1-yl)-N-(4-cyanophenyl)benzamide] | > 14.2 | 0.049 (≈ 0.0345 µg/mL) | 0.0236 (≈ 0.0166 µg/mL) | 0.179 (≈ 0.126 µg/mL) | 0.0529 (≈ 0.0372 µg/mL) | 0.284 (≈ 0.2 µg/mL) |
| Cc1cc(N2CCN(c3ccc(C(=O)Nc4ccc(C#N)cn4)cc3)CC2)ccc1OC[C@@H]1CO[C@@](Cn2cncn2)(c2ccc(F)cc2F)C1 [Example 7] | > 14.5 | 0.0141 (≈ 0.00974 µg/mL) | 0.00586 (≈ 0.00405 µg/mL) | 0.0419 (≈ 0.0289 µg/mL) | 0.00407 (≈ 0.00281 µg/mL) | 0.0125 (≈ 0.00863 µg/mL) |
| Cc1cc(N2CCN(c3ccc(C(=O)Nc4cc(C#N)ccn4)cc3)CC2)ccc1OC[C@@H]1CO[C@@](Cn2cncn2)(c2ccc(F)cc2F)C1 [Example 37, 4-(4-(4-(((3R,5R)-5-((1H-1,2,4-triazol-1-yl)methyl)-5-(2,4-difluorophenyl)tetrahydrofuran-3-yl)methoxy)-3-methylphenyl)piperazin-1-yl)-N-(4-cyanopyridin-2-yl)benzamide] | > 14.5 | 0.0246 (≈ 0.017 µg/mL) | 0.0284 (≈ 0.0196 µg/mL) | 0.194 (≈ 0.134 µg/mL) | 0.022 (≈ 0.0152 µg/mL) | 0.0188 (≈ 0.013 µg/mL) |
